Among the data in ChEMBL document CHEMBL5604062, “ASAP - ZIKV NS2B-NS3 protease fluorescence dose response” (2024) are IC50 values, retold here.

As usually defined, the IC50 is the point on the concentration scale where inhibition reaches its midpoint. High values mean weaker potency in that assay, low ones greater potency in that assay.

Structures are written as SMILES. Several values for one entry are separate records, joined by “and”; a condition that tells them apart may be missing. Equal values may be shown once. Some results are limits rather than exact numbers.

The assay deals with Nonstructural protein 3 (Zika virus, UniProt A0A024AXB9). Briefly: Functional biochemical assay to identify treatments for viral infectious disease that targets Zika NS2B-NS3 protease. Utilizing a direct enzyme activity measurement method, reading the fluorescence intensity is used to characterize the relative potency of inhibitors as IC50. More on the design: species or system PRVABC59.
Nonstructural protein 3, sequence (A0A024AXB9 whole entry): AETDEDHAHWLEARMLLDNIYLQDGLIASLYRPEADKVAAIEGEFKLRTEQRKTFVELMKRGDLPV
As to `c1ccc2c(CN3CCCc4cnccc4C3)n[nH]c2c1`, the IC50 was > 99.5 µM.

In turn, `COc1cc(C(=O)O)c(S(=O)(=O)Nc2ccc(Oc3ccccc3Cl)cc2)cc1F` showed an IC50 of 91.6 µM.

With `CN(C)Cc1cccc(-c2ccc(S(=O)(=O)Nc3ccc(Cl)cc3C(=O)O)cc2)c1`, the IC50 was > 99.5 µM.

For `NCc1cccc(NC(=O)[C@@]23C[C@@H](NC(=O)OCc4ccccc4)C[C@@H]2C3)c1`, the IC50 is > 99.5 µM.

On to `O=C(O)c1cc(Cl)ccc1NS(=O)(=O)c1ccc(-c2cc[nH]n2)cc1`, for which the IC50 was > 99.5 µM.

`NCC1CCN(C(=O)c2cc(Cl)cc(NC(=O)OCc3ccccc3)c2)CC1` showed an IC50 of 97.3 µM.

As to `O=C(O)c1cc(Cl)ccc1S(=O)(=O)Nc1ccc(C(=O)N2CCCCC2)cc1`, the IC50 was > 99.5 µM.

For the compound `CN(C)[C@@H]1C[C@H](C(=O)Nc2cccc(CN)c2)CN(C(=O)OCc2ccccc2)C1`, the IC50 was > 99.5 µM.

`O=C(O)c1cc(Cl)ccc1NS(=O)(=O)c1ccc(-c2cncs2)cc1` had a half-maximal inhibitory concentration (IC50) of 34.4 µM.

`NCc1cccc(NC(=O)C[C@@H](NC(=O)OCc2ccccc2)C2CCCCC2)c1`: the IC50 is > 99.5 µM and 56.7 µM.

On to `NCc1cccc(NC(=O)C[C@@H]2[C@H]3CC[C@H](C3)N2C(=O)OCc2ccccc2)c1`, for which the IC50 is > 99.5 µM.

On to `NCCc1cccc(NC(=O)c2cc(Cl)cc(NC(=O)OCc3ccccc3)c2)c1`, for which the IC50 was 4.1 µM and 3.91 µM.

Turning to `Fc1cccc(F)c1-c1n[nH]cc1CN1CCC(c2nc3ccccc3s2)CC1`, the IC50 is > 99.5 µM.

Consider `N#Cc1ccc(S(=O)(=O)Nc2ccc(Oc3ccccc3Cl)cc2)c(C(=O)O)c1`, for which the IC50 is > 99.5 µM.

Regarding `O=C(O)c1cc(Cl)ccc1S(=O)(=O)Nc1ccc(-c2n[nH]c3c2CCCC3)cc1`, the IC50 was > 99.5 µM.

Regarding `Cc1cc(C)cc(C(=O)N2CCC(NS(=O)(=O)c3ccc(Cl)cc3C(=O)O)CC2)c1`, the IC50 is > 99.5 µM.

On to `COc1ncc(C(=O)Nc2cccc(CN)c2)cc1NC(=O)OCc1ccccc1`, for which the IC50 is > 99.5 µM.

Take `C[C@@H]1C[C@H](NS(=O)(=O)c2ccc(Cl)cc2C(=O)O)C[C@H](C)N1Cc1ccccc1`: the IC50 was > 99.5 µM.

Turning to `Cc1cccc(N2CCC(NS(=O)(=O)c3ccc(Cl)cc3C(=O)O)CC2)n1`, the IC50 is > 99.5 µM.

With `c1ccc2sc(C3CCN([C@H]4Cc5[nH]c6ccccc6c5C4)CC3)nc2c1`, the 50% inhibitory concentration (IC50) is > 99.5 µM.

Take `CCn1cc(C(=O)NCc2ccccc2)nc(N2CC[C@@H](CO)C2)c1=O`: the IC50 was > 99.5 µM.

Consider `NCc1cccc(NC(=O)[C@@H](NS(=O)(=O)C[C@H]2CCCCO2)c2ccc(OCc3ccccc3)cc2)c1`, for which the IC50 is > 99.5 µM.

Consider `CCc1ncc(CN2CCC(c3nc4ccccc4s3)CC2)[nH]1`, for which the IC50 was > 99.5 µM.

With `c1ccc2sc(C3CCN(Cc4n[nH]c5c4CCCC5)CC3)nc2c1`, the IC50 was > 99.5 µM.

For the compound `COc1ccc(-c2cc(NS(=O)(=O)c3ccc(Cl)cc3C(=O)O)ccc2OC)cc1`, the half-inhibitory concentration (IC50) was > 99.5 µM.

On to `COc1n[nH]cc1CN1CCC(c2nc3ccccc3s2)CC1`, for which the IC50 is > 99.5 µM.

`CCCOc1ccc([C@@H](CC(=O)Nc2cccc(CN)c2)NC(=O)OCc2ccccc2)cc1`: the IC50 was > 99.5 µM and 66.2 µM.

For `CN(C)c1cc(-c2ccc(S(=O)(=O)Nc3ccc(Cl)cc3C(=O)O)cc2)ccn1`, the concentration for half-maximal inhibition (IC50) was > 99.5 µM.

Regarding `CN1CC=C(c2ccc(S(=O)(=O)Nc3ccc(Cl)cc3C(=O)O)cc2)CC1`, the IC50 was > 99.5 µM.

On to `c1cncc(C2CC(NCc3n[nH]c4ccccc34)C2)c1` (stereo not given), for which the IC50 is > 99.5 µM.

For `O=C(O)c1cc(Cl)ccc1S(=O)(=O)Nc1ccc(F)c(NC(=O)C2CC2)c1`, the half-maximal inhibitory concentration (IC50) was > 99.5 µM.

With `NC[C@H]1CC[C@H](CNC(=O)c2cc(Cl)cc(NC(=O)OCc3ccccc3)c2)CC1`, the IC50 was 25.4 µM and 25.7 µM.

Compound `O=C(O)c1cc(Cl)ccc1S(=O)(=O)NC1CCN(c2nc(C3CC3)cc(C(F)(F)F)n2)CC1` gave an IC50 of 46.6 µM.

Regarding `CCc1ccc(S(=O)(=O)N[C@@H](C(=O)Nc2cccc(CN)c2)c2ccc(OCc3ccccc3)cc2)cc1`, the IC50 is 52.3 µM.

In the case of `CCn1cc(S(=O)(=O)N[C@@H](C(=O)Nc2cccc(CN)c2)c2ccc(OCc3ccccc3)cc2)cn1`, the IC50 is > 99.5 µM.
